Measured values: US9688684B2, “Substituted tetrazolo[1,5-a]pyrazines as ROR-gamma inhibitors” (Merck Patent GmbH, priority 2013, dated 2017)

Columns and labels:
[1] = molecular target: human RORγ ligand binding domain (GST-hRORγ-LBD) (Homo sapiens (Human), UniProt P51449); assay: TR-FRET assay (biochemical cofactor interaction assay, GST-hRORγ-LBD / TRAP220 peptide)
Source text: RORγ is an orphan member of the nuclear receptor (NR) family displaying constitutive activity. The activity of nuclear receptors can be modulated by ligand-induced cofactor protein interactions. For example, agonist binding leads to recruitment of coactivator protein, and antagonist binding either blocks coactivator interaction or facilitates the recruitment of corepressors. […] The conformational change induced by ligand binding influences interactions with LXXLL motif peptides.
RORγ (t) is a thymus-specific isoform of RORγ which is widely expressed. It shares the same ligand binding domain (LBD) sequence with RORγ. Thus, a screen using the LBD will yield antagonists targeting both RORγ and RORγt.
In order to identify compounds which block activity of the human nuclear receptor Retinoid-related Orphan Receptor gamma (RORγ) a biochemical cofactor interaction assay based on the TR-FRET principle is performed. […] The ligand-binding domain (LBD) of RORγ is expressed as fusion protein with GST in […] cells using the vector pDEST15. Cells are lysed by lysozyme-treatment and sonication, and the fusion proteins purified over glutathione sepharose (Pharmacia) according to the manufacturers instructions. The strong constitutive interaction is disrupted upon binding of functional antagonists. The strength of the interaction is monitored by TR-FRET between streptavidine APC interacting with the biotinylated peptide and Europium-labelled Anti-GST.

[2] = molecular target: RORγ Ligand binding domain (RORγ-LBD, aa 238-497, NP_001001523) (Homo sapiens (Human), UniProt P51449); assay: ROR γ GAI4 Reporter Gene Assay (Mammalian one-hybrid, M1H) in 293T cells; type: cell-based
Source text: ROR γ GAI4 Reporter Gene Assay
A Mammalian one-hybrid system is used to perform a cell-based functional transactivation assay for detecting RORγ activity modulators.
The Mammalian-1-Hybrid is derived from the Mammalian-2-Hybrid setup. Whereas in the latter, the binding partners are defined in their role as interaction, transactivation and DNA-binding components, the Mammalian-1-Hybrid makes use of the fact that all mammalian cell types express a set of Nuclear Receptors and their associated cofactors. […] A Gal4 minimal promoter driven luciferase construct (pFR-Luc from Stratagene, containing a synthetic promoter with five tandem repeats of the yeast GAL4 binding sites controlling expression of the Photinus pyralis luciferase gene) is used as reporter. The Gal4-DBD-NR-LBD fusion protein by itself cannot initiate transcription and is dependent on the presence of cofactors present in the cellular system used.
In order to rule out cytotoxic and unspecific transcriptional compound effects a transfection with a firefly luciferase driven by the constitutive CMV promoter is performed in parallel.
After transfection 18 μl complete MEM medium containing 3% charcoal-dextran treated FBS is added as well as 4 μl test compounds (DMSO stocks prediluted in OptiMem (Invitrogen)) followed by incubation for 16-24 h at 37° C., 5% CO2 and 90% rH.
Firefly luciferase activity is measured using the Promega ONE-Glo™ Luciferase Assay System.

Chain of RORγ Ligand binding domain (RORγ-LBD, aa 238-497, NP_001001523) (P51449 259-518): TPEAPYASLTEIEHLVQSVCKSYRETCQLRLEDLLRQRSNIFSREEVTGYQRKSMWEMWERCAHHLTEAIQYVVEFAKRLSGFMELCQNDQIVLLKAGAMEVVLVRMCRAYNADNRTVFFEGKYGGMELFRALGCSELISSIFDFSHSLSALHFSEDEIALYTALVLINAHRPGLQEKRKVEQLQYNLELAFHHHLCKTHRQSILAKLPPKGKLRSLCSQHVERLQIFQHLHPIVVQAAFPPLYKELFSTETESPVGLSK
Chain of human RORγ ligand binding domain (GST-hRORγ-LBD) (P51449 269-508): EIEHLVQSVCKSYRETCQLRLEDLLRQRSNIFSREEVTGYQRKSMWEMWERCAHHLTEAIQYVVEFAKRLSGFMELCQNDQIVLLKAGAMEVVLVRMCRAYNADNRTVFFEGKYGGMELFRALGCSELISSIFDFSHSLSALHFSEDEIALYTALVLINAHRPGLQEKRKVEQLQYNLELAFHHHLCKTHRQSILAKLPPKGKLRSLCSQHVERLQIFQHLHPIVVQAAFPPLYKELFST

## COc1ccc(OC)c(C2c3nnnn3CCN2Cc2ccc(F)cc2)c1 (centres unmarked) [Compound 128, 8-(2,5-Dimethoxy-phenyl)-7-(4-fluoro-benzyl)-5,6,7,8-tetrahydro-tetrazolo[1,5-a]pyrazine]
[1]
  IC50: 0.99 to 9.9 µM
[2]
  IC50: 9.9 to 40 µM

## CC(C)Oc1ccc(C2c3nnnn3CCN2Cc2ccc3c(c2)OCO3)cc1 (centres unmarked) [Compound 131, 7-Benzo[1,3]dioxol-5-ylmethyl-8-(4-isopropoxy-phenyl)-5,6,7,8-tetrahydro-tetrazolo[1,5-a]pyrazine]
[1]
  IC50: 0.99 to 9.9 µM
[2]
  IC50: 9.9 to 40 µM

## Fc1ccc(CN2CCn3nnnc3C2c2ccc3c(c2)OCCO3)cc1 (centres unmarked) [Compound 133, 8-(2,3-Dihydro-benzo[1,4]dioxin-6-yl)-7-(4-fluoro-benzyl)-5,6,7,8-tetrahydro-tetrazolo[1,5-a]pyrazine]
[1]
  IC50: 0.99 to 9.9 µM
[2]
  IC50: 9.9 to 40 µM

## CCOc1ccc(C2c3nnnn3CCN2Cc2ccc(F)cc2)cc1 (centres unmarked) [Compound 134, 8-(4-Ethoxy-phenyl)-7-(4-fluoro-benzyl)-5,6,7,8-tetrahydro-tetrazolo[1,5-a]pyrazine]
[1]
  IC50: 0.99 to 9.9 µM
[2]
  IC50: 9.9 to 40 µM

## Cc1cccc(CN2CCn3nnnc3C2c2ccc(F)cc2F)c1 (centres unmarked) [Compound 136, 8-(2,4-Difluoro-phenyl)-7-(3-methyl-benzyl)-5,6,7,8-tetrahydro-tetrazolo[1,5-a]pyrazine]
[1]
  IC50: 0.99 to 9.9 µM
[2]
  IC50: 9.9 to 40 µM

## Fc1ccccc1C1c2nnnn2CCN1Cc1cccs1 (centres unmarked) [Compound 137, 8-(2-Fluoro-phenyl)-7-thiophen-2-ylmethyl-5,6,7,8-tetrahydro-tetrazolo[1,5-a]pyrazine]
[1]
  IC50: 0.99 to 9.9 µM
[2]
  IC50: 9.9 to 40 µM

## Cc1ccc(CN2CCn3nnnc3C2c2ccc(OC(C)C)cc2)o1 (centres unmarked) [Compound 142, 8-(4-Isopropoxy-phenyl)-7-(5-methyl-furan-2-ylmethyl)-5,6,7,8-tetrahydro-tetrazolo[1,5-a]pyrazine]
[1]
  IC50: 9.9 to 40 µM
[2]
  IC50: 9.9 to 40 µM

## COc1ccc(C2c3nnnn3CCN2Cc2ccc(F)cc2)cc1 (centres unmarked) [Compound 146, 7-(4-Fluoro-benzyl)-8-(4-methoxy-phenyl)-5,6,7,8-tetrahydro-tetrazolo[1,5-a]pyrazine]
[1]
  IC50: 9.9 to 40 µM
[2]
  IC50: 0.99 to 9.9 µM

## CC(C)c1nn(-c2ccccc2)cc1C1c2nnnn2CCN1Cc1cnn2ccccc12 (centres unmarked) [Compound 154, 8-(3-Isopropyl-1-phenyl-1H-pyrazol-4-yl)-7-pyrazolo[1,5-a]pyridin-3-ylmethyl-5,6,7,8-tetrahydro-tetrazolo[1,5-a]pyrazine]
[1]
  IC50: 9.9 to 40 µM
[2]
  IC50: 0.99 to 9.9 µM

## Cc1c(CN2CCn3nnnc3C2c2cn(-c3ccccc3)nc2C(C)C)cnn1C (centres unmarked) [Compound 156, 7-(1,5-Dimethyl-1H-pyrazol-4-ylmethyl)-8-(3-isopropyl-1-phenyl-1H-pyrazol-4-yl)-5,6,7,8-tetrahydro-tetrazolo[1,5-a]pyrazine]
[1]
  IC50: 9.9 to 40 µM
[2]
  IC50: 9.9 to 40 µM

## CC(C)(C)c1nn(Cc2ccccc2)cc1C1c2nnnn2CCN1Cc1cccs1 (centres unmarked) [Compound 160, 8-(1-Benzyl-3-tert-butyl-1H-pyrazol-4-yl)-7-thiophen-2-ylmethyl-5,6,7,8-tetrahydro-tetrazolo[1,5-a]pyrazine]
[1]
  IC50: 9.9 to 40 µM
[2]
  IC50: 0.99 to 9.9 µM

## CC(C)c1nn(-c2ccccc2)cc1C1c2nnnn2CCN1Cc1cnn(Cc2ccccc2)c1 (centres unmarked) [Compound 161, 7-(1-Benzyl-1H-pyrazol-4-ylmethyl)-8-(3-isopropyl-1-phenyl-1H-pyrazol-4-yl)-5,6,7,8-tetrahydro-tetrazolo[1,5-a]pyrazine]
[1]
  IC50: 0.99 to 9.9 µM
[2]
  IC50: 0.99 to 9.9 µM

## Fc1cccc(C2c3nnnn3CCN2Cc2cccc(Br)c2)c1 (centres unmarked) [Compound 163, 7-(3-Bromo-benzyl)-8-(3-fluoro-phenyl)-5,6,7,8-tetrahydro-tetrazolo[1,5-a]pyrazine]
[1]
  IC50: 0.01 to 0.99 µM
[2]
  IC50: 9.9 to 40 µM
